Test results as given in patent US7629346B2, “Pyrazinecarboxamide derivatives as CB1 antagonists” (Hoffmann-La Roche Inc., priority 2006, dated 2009).
Like-named read-outs stand apart in the source and are kept apart here. Blank lines part the entries; values can stand above or below the compound they belong to.

Legend:
[1] = molecular target: T1, human cannabis CB1 receptor (Homo sapiens, UniProt P21554); experiment: Affinity for cannabinoid CB1 receptors, [3H]-CP-55,940 radioligand binding on HEK cell membranes
T1 construct: expressed in transfected cells; host or cells: human embryonic kidney (HEK) cells, Semliki Forest Virus system, membrane preparation
T1 sequence (P21554 whole entry): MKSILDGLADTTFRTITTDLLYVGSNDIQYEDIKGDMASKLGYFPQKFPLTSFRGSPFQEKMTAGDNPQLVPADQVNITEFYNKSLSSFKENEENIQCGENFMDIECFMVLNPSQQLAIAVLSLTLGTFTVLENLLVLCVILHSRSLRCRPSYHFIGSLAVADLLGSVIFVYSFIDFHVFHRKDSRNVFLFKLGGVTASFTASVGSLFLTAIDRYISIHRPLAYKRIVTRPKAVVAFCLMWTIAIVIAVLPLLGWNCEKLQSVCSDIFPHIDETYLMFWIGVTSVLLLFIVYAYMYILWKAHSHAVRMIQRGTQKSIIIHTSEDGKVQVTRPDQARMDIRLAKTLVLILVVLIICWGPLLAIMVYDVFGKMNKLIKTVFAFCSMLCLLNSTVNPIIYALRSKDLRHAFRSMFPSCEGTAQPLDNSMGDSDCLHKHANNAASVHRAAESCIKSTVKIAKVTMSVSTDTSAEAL
Description: The affinity of the compounds of the invention for cannabinoid CB1 receptors was determined using membrane preparations of human embryonic kidney (HEK) cells in which the human cannabis CB1 receptor is transiently transfected using the Semliki Forest Virus system in conjunction with [3H]-CP-55,940 as radioligand. After incubation of a freshly prepared cell membrane preparation with the [3H]-ligand, with or without addition of compounds of the invention, separation of bound and free ligand was performed by filtration over glassfiber filters. Radioactivity on the filter was measured by liquid scintillation counting.
The compounds of formula (I) show an excellent affinity for the CB1 receptor, determined with the experimental conditions described in Devane et. al. Mol. Pharmacol. 34 (1988) 605-613.

[2] = wild-type versus CB1 knockout mice; cited from earlier work
[3] = phase III trial STRATUS-US; cited from earlier work
[4] = several phase III studies; cited from earlier work
[5] = 10 and 20 mg daily; cited from earlier work
[6] = [3H]-CP-55,940 as radioligand, membranes of HEK cells transfected with human CB1 receptor, read-out: Ki

Structure (SMILES): COCCOc1ncc(C(=O)NC[C@](C)(O)C2CC2)nc1-c1ccc(Cl)cc1 [Example 27, 6-(4-Chloro-phenyl)-5-(2-methoxy-ethoxy)-pyrazine-2-carboxylic acid ((R)-2-cyclopropyl-2-hydroxy-propyl)-amide]
Ki [1]: 47.5 nM

Ki [1, 6]: 35.4 nM
Structure (SMILES): CN(c1ncc(C(=O)N[C@@H]2CCCC[C@H]2O)nc1-c1ccc(OC(F)(F)F)cc1)C1CC1 [Example 21, 5-(Cyclopropyl-methyl-amino)-6-(4-trifluoromethoxy-phenyl)-pyrazine-2-carboxylic acid ((1R,2R)-2-hydroxy-cyclohexyl)-amide]

Structure (SMILES): Cc1c(C(=O)NN2CCCCC2)nn(-c2ccc(Cl)cc2Cl)c1-c1ccc(Cl)cc1 [SR 141716, Rimonabant]
food intake [2]: reduces food intake in wild-type but not knockout mice | efficacy for smoking cessation [3]: has shown efficacy | body weight, waist circumference and metabolic parameters (plasma HDL, triglycerides and insulin sensitivity) [4]: reduced body weight, waist circumference and improved metabolic parameters | body weight compared to placebo [5]: significantly reduced body weight

Ki [1, 6]: 12.2 nM
Structure (SMILES): C[C@](O)(CNC(=O)c1cnc(OCc2ncccn2)c(-c2ccc(F)cc2)n1)C1CC1 [Example 69, 6-(4-Fluoro-phenyl)-5-(pyrimidin-2-ylmethoxy)-pyrazine-2-carboxylic acid ((R)-2-cyclopropyl-2-hydroxy-propyl)-amide]
